What was measured:
Type in all cases: physicochemical
[1] = Stability trial of sevoflurane dried over Type 3A molecular sieve, packaged in glass bottles or epoxy-lined drums; settings: for decomposition / % sevoflurane by gas chromatography: dried to 0 ppm water, 30 days at 40° C. and 75% relative humidity; for % sevoflurane by gas chromatography: initial 99.99%
Method: (§1) Sevoflurane (99.99%, produced January 2005) was dried over Type 3A molecular sieve using a continuous flow bed apparatus to a water-composition of 0.0 wt % (or 0 ppm) as measured by Karl Fischer. 100 ml of sevoflurane was packaged into a Type III amber glass bottle and sealed for a 30-day stability trial at 40° C. and 75% relative humidity. At the end of this time, the sevoflurane was 99.99% as determined by gas chromatography.
as §1, with “water composition” for “water-composition”, “250” for “100”
Sevoflurane (99.99%, produced January 2005) was dried over Type 3A molecular sieve using a continuous flow bed apparatus to a water composition of 0.0 wt % (or 0 ppm) as measured by Karl Fischer. 28.1 kg of sevoflurane was packaged in a five-gallon epoxy-lined drum and sealed for a 30-day stability trial at 40° C. and 75% relative humidity. At the end of this time, the % sevoflurane was 99.99% as determined by gas chromatography.
Purified Sevoflurane was dried over Type 3A molecular sieve using a continuous flow bed apparatus to negligible or near-negligible water compositions as measured by Karl Fischer. The dried material was packaged into 100 mL or 250 mL Type III amber glass bottles or into 5 gal epoxy-lined drums and subsequently stored as part of a stability trial under controlled or ambient conditions.
The sevoflurane used in examples 8-11 was produced by the method described in pending U.S. patent application Ser. No. 11/281,293, filed Nov. 17, 2005, the disclosure of which is incorporated herein by reference.

[2] = Storage stability of sevoflurane stored with Type 3A molecular sieve in Type III glass
Text: Another sample of sevoflurane (40 g) was stored with 2 g of Type 3A molecular sieve (an alumino silicate that contains Al2O3, identified as a Lewis acid in the '176 patent) in July 2000. This sample was in a new Type III glass container for six months at ambient temperatures.
Starting in July 2000, 40 g of sevoflurane (Abbott Laboratories Lot # 35-621 -DK-03) was stored in the presence of 2 g of Type 3A molecular sieve for 20 months in a dried, new Type III amber glass bottle at room temperature. The initial water content was 218 ppm and was essentially zero after 16 hours of contact with the molecular sieve (as determined by Karl Fischer, a method known to those skilled in the art with a detection limit of about 1 ppm or less).
Starting in July 2000, a sample of sevoflurane (from the lot described in Example 1) was held at room temperature (25-27° C.) over Type 3A molecular sieve for two-and-a-half months in a dried, new Type III amber glass bottle.

[3] = Water saturation limit of sevoflurane; settings: second sample of Example 4 (28 g)
Method: Currently available processes for the preparation of sevoflurane generally give a product containing dissolved water up to 0.12 to 0.14 wt %, or 1200 to 1400 ppm, the approximate water saturation limit of sevoflurane. […] This sample was sealed in September 2000 in a new Type III glass bottle as previously described and stored at 40° C. for four weeks.

[4] = Storage stability of sevoflurane in the presence of iron oxide (Fe2O3, a Lewis acid)
Method: A sample of sevoflurane containing 30 ppm of water and 0.05 g Fe2O3 (iron oxide) was placed in a new Type III amber glass bottle in July 2000 and sealed as previously described. […] This sample was sealed in September 2000 in a new Type III glass bottle as previously described and stored at 40° C. for four weeks.

[5] = Storage stability of sevoflurane in Type III glass bottle (gas chromatography, Karl Fischer)
Method: In one experiment initiated in August 2000, sevoflurane (Abbott Laboratories, Lot #61-339-DK, Expiration Date Aug. 1, 2001) was dried to 0 ppm water content using Type 3A molecular sieve. Drying was performed by mixing the sevoflurane with molecular sieves and then allowing these materials to stand together for several hours. The water content was determined by Karl Fischer analysis. A sample of the dried sevoflurane was placed in a new amber Type III glass bottle, which had been dried at 100° C. for 2 hours. The bottle was sealed with a black phenolic/urea resin cap and a polyseal liner of polyethylene resin and shrink-wrapped or wrapped with Teflon® tape and shrink-wrapped. The sample was then held at room temperature (25-27° C.) and at ambient relative humidity. […] One undried lot of sevoflurane from Abbott Laboratories (Lot #0 335 70 K, Expiration Date Apr. 1, 1997, stored in a Type III bottle) was analyzed in May and October 2000. This sevoflurane was 97 ppm H2O and 99.9916% sevoflurane by gas chromatography.

[6] = 5 gal epoxy-lined drum, Mfg. April 2005, initial water 6 ppm, 60 days, 40 C./75% RH
[7] = 5 gal epoxy-lined drum, Mfg. April 2005, initial water 10 ppm, 9 months, Ambient
[8] = 5 gal epoxy-lined drum, Mfg. February 2005, initial water 0 ppm, 12 months, 40 C./75% RH
[9] = 5 gal epoxy-lined drum, Mfg. February 2005, initial water 0 ppm, 12 months, Ambient
[10] = 5 gal epoxy-lined drum, Mfg. January 2005, initial water 0 ppm, 6 months, 40 C./75% RH
[11] = 5 gal epoxy-lined drum, Mfg. January 2005, initial water 0 ppm, 90 days, Ambient
[12] = 100 mL Type III amber glass bottle, Mfg. February 2005, initial water 0 ppm, 9 months, 25 C./60% RH
[13] = 100 mL Type III amber glass bottle, Mfg. February 2005, initial water 0 ppm, 60 days, 40 C./75% RH
[14] = 250 mL Type III amber glass bottle, Mfg. April 2005, initial water 5 ppm, 6 months, 25 C./60% RH
[15] = 250 mL Type III amber glass bottle, Mfg. April 2005, initial water 5 ppm, 90 days, 40 C./75% RH
[16] = 250 mL Type III amber glass bottle, Mfg. February 2005, initial water 0 ppm, 9 months, 25 C./60% RH
[17] = 250 mL Type III amber glass bottle, Mfg. February 2005, initial water 0 ppm, 60 days, 40 C./75% RH
[18] = 250 mL Type III amber glass bottle, Mfg. January 2005, initial water 0 ppm, 12 months, 25 C./60% RH
[19] = 28.1 kg in five-gallon epoxy-lined drum
[20] = 100 ml in Type III amber glass bottle
[21] = 250 ml in Type III amber glass bottle
[22] = 40 g with 2 g Type 3A molecular sieve, new Type III glass container, six months at ambient temperatures
[23] = lot of Example 1 over Type 3A molecular sieve, dried, new Type III amber glass bottle, room temperature (25-27° C.), two-and-a-half months
[24] = 28 g saturated with water (1235 ppm), 0.07 g Fe2O3, new Type III glass bottle, 40° C. for four weeks
[25] = 30 ppm water, 0.05 g Fe2O3, new Type III amber glass bottle, four weeks at 40° C.
[26] = undried Abbott Lot #0 335 70 K, 97 ppm H2O, Type III bottle, ambient temperature for about five years

- Final Comp. [1, 6]: 99.998%
- Result (decomposition) [1, 6]: No
- Final Comp. [1, 7]: 99.998%
- Result (decomposition) [1, 7]: No
- Final Comp. [1, 8]: 99.98%
- Result (decomposition) [1, 8]: No
- Final Comp. [1, 9]: 99.98%
- Result (decomposition) [1, 9]: No
- Final Comp. [1, 10]: 99.98%
- Result (decomposition) [1, 10]: No
- Final Comp. [1, 11]: 99.99%
- Result (decomposition) [1, 11]: No
- Final Comp. [1, 12]: 99.98%
- Result (decomposition) [1, 12]: No
- Final Comp. [1, 13]: 99.99%
- Result (decomposition) [1, 13]: No
- Final Comp. [1, 14]: 99.997%
- Result (decomposition) [1, 14]: No
- Final Comp. [1, 15]: 99.997%
- Result (decomposition) [1, 15]: No
- Final Comp. [1, 16]: 99.98%
- Result (decomposition) [1, 16]: No
- Final Comp. [1, 17]: 99.98%
- Result (decomposition) [1, 17]: No
- Final Comp. [1, 18]: 99.99%
- Result (decomposition) [1, 18]: No
- decomposition [1, 19]: no decomposition
- % sevoflurane by gas chromatography [1, 19]: 99.99%
- decomposition [1, 20]: no decomposition
- % sevoflurane by gas chromatography [1, 20]: 99.99%
- decomposition [1, 21]: no decomposition
- % sevoflurane by gas chromatography [1, 21]: 99.99%
- decomposition ([2]; 40 g Abbott Lot # 35-621 -DK-03 with 2 g Type 3A molecular sieve, dried, new Type III amber glass bottle, room temperature, 20 months): no evidence of any decomposition
- % sevoflurane by gas chromatography ([2]; 40 g Abbott Lot # 35-621 -DK-03 with 2 g Type 3A molecular sieve, dried, new Type III amber glass bottle, room temperature, 20 months, initial water 218 ppm, essentially zero after 16 hours): 99.997%
- % sevoflurane by gas chromatography [2, 22]: greater than 99.99%
- decomposition [2, 22]: No decomposition
- % sevoflurane by gas chromatography [2, 23]: greater than 99.99%
- decomposition [2, 23]: no decomposition
- water content of sevoflurane saturated with water [3]: 1235 ppm
- decomposition [4, 24]: no decomposition
- purity by gas chromatography [4, 24]: 99.97%
- % (CF3)2CHOCH2OCH(CF3)2 decomposition product by gas chromatographic analyses [4, 25]: 6.33%
- % (CF3)2CHOH decomposition product by gas chromatographic analyses [4, 25]: 0.49%
- % sevoflurane by gas chromatographic analyses [4, 25]: 90.7%
- % sevoflurane by gas chromatography ([5]; Abbott Lot #61-339-DK dried to 0 ppm water with Type 3A molecular sieve, new amber Type III glass bottle, room temperature (25-27° C.), ambient relative humidity, four weeks): 99.998%
- water (Karl Fischer analysis) at end of stability run ([5]; Abbott Lot #61-339-DK dried to 0 ppm water, new amber Type III glass bottle, room temperature (25-27° C.), ambient relative humidity, four weeks): 68 ppm
- decomposition ([5]; Abbott Lot #61-339-DK dried to 0 ppm water, new amber Type III glass bottle, room temperature (25-27° C.), four weeks): no decomposition
- % sevoflurane by gas chromatography [5, 26]: 99.9916%
- decomposition [5, 26]: without decomposition
Structure (SMILES): FCOC(C(F)(F)F)C(F)(F)F [sevoflurane, 1,1,1,3,3,3-hexafluoroisopropyl fluoromethyl ether]
